From patent publication US20080167376A1, “Methods and products which utilize N-acyl-L-aspartic acid” (DMI BIOSCIENCES, INC., priority 2003, published 2008)

How the values were obtained:
[1] = tested on: PGE2 production in ionomycin-stimulated STTG cells; test: Prostaglandin E2 assay (PGE2 EIA) in ionomycin-stimulated STTG cells; type: cell-based, human; conditions: for decrease in PGE2 release / effect on total PGE2 release: FIG. 2
Description: FIG. 1. Percent inhibition of prostaglandin E2 (PGE2) production in ionomycin-stimulated STTG cells. PGE2 production was assayed in ionomycin-stimulated STTG cells treated with N-acetyl-L-aspartate (NAA), aspirin (Asp) or dexamethasone (Dex) using a PGE2 enzyme immunoassay described in Example 1. Cells were pre-incubated for 1 hour with NAA, Asp or Dex and then stimulated with 1 μM ionomycin at 37° C., 10% CO2 for 24 hours. Percent inhibition of PGE2 production was measured compared to ionomycin-stimulated STTG cells in the absence of NAA, Asp or Dex. Data represent mean ±SD of three separate experiments. Asterisks indicate a significant difference between untreated, ionomycin-stimulated STTG cells and treated, ionomycin-stimulated STTG cells: *p<0.01. Iono=ionomycin.
FIG. 2. Effect of glutamate receptor antagonists and NAA on PGE2 release in STTG cells stimulated with ionomycin. PGE2 production was assayed in ionomycin-stimulated STTG cells treated with NAA or potential glutamate receptor antagonists (AP-4 and GDE) using a PGE2 enzyme immunoassay described in Example 1. Cells were pre-incubated for 1 hour with NAA or the potential glutamate receptor antagonists and then cells were stimulated with 1 μM ionomycin at 37° C., 10% CO2 for 24 hours. Percent inhibition of PGE2 production was measured compared to ionomycin-stimulated STTG cells in the absence of NAA or potential glutamate receptor antagonists. Data represent mean ±SD of three separate experiments. Asterisks indicate a significant difference between untreated, ionomycin-stimulated STTG cells and treated, ionomycin-stimulated STTG cells: *p<0.01. AP-4=L-2-amino-4-phosphonobutyric acid, and GDE=L-glutamic acid diethyl ester.
Prostaglandin E2 Assay. Human STTG astroglial cells (CRL-1718, American […], Rockville, Mass.) were grown in 75 cm^2 flasks (10% CO2, 37° C.) containing AGM medium (BioWhittaker, Walkersville, Md.) to near confluency (>90%) prior to subculturing with trypsin/EDTA. Cells were plated on a 24-well plate at 50,000 cells/well and incubated for two days to near confluency prior to dosing with inhibitors. N-Acetyl aspartate (NAA, Sigma-Aldrich, St. Louis, Mo.) was dissolved in AGM medium and brought back to a pH of 7.4. Stock solutions of aspirin were dissolved in DMSO and then diluted in culture medium. DMSO concentrations were never >0.5% in the medium bathing the cells. Cells were then dosed with potential prostaglandin E2 (PGE2) inhibitors (NAA, L-2-Amino-4-phosphonobutyric acid [L-AP-4, Sigma-Aldrich, St. Louis, Mo.], L-glutamic acid diethyl ester [GDE, generous gift from Nagaraja K. R. Rao, DMI Synthesis UK Ltd.], aspirin, or dexamethasone). After a 1-hour incubation, the cells were then stimulated with 1 μM ionomycin (Sigma-Aldrich, St. Louis, Mo.) for 24 hours at 37° C. Total volume per well was 1 mL. Then, 0.5 mL of culture medium was removed from each well and immediately assayed for PGE2 using the Prostaglandin E2 enzyme immunoassay (EIA) system (Amersham, Piscataway, N.J.). The remaining medium containing the cells was assayed for cell viability using cell titer reagent (G358A, Promega, Madison, Wis.).

[2] = tested on: COX-2 protein in STTG cells; test: Western blot of total COX-2 protein in STTG cells; type: cell-based, human; conditions: 24 h, 200 μM aspirin, 10 mM NAA (FIG. 3); for effect on total amount of COX-2 protein: STTG cells stimulated with 1 or 2 ng/ml IL-1β; for effect on resting COX-2 protein: unstimulated STTG cells
Description: FIG. 3. Representative Western blot for total COX-2 protein in IL-1β-stimulated STTG cells treated with NAA and aspirin. Cells were incubated for 24 hours at 37° C., 10% CO2. Cells were dosed as follows: untreated (lane 1), 200 μM aspirin (lane 2), 10 mM NAA (lane 3), 1 ng/ml IL-1β (lane 4), 2 ng/ml IL-1β (lane 5), 1 ng/ml IL-1β+200 μM aspirin (lane 6), 2 ng/ml IL-1β+200 μM aspirin (lane 7), 1 ng/ml IL-1β+10 mM NAA (lane 8), or 2 ng/ml IL-1β+10 mM NAA (lane 9). Cells were lysed and COX-2 protein was immunoprecipitated overnight (1:500 goat anti-human COX-2) from 400 μg total lysate protein. Immunoprecipitate was loaded on 4-20% tris-glycine gel and transferred overnight onto nitrocellulose membrane. Total COX-2 protein was quantitated using a goat anti-human COX-2 antibody (1:100) and 1:5,000 rabbit anti-goat IgG. The membrane was visualized by chemiluminescence.
Western Blot of COX-2. STTG cells were treated with either NAA or aspirin and immediately stimulated with 1 or 2 ng/ml IL-1β (Sigma-Aldrich, St. Louis, Mo.). After a 24-hour incubation at 37° C. (10% CO2), cells were lysed and total protein was quantitated by BCA (Pierce, Rockford, Ill.). Then, 0.5 mg lysate was immunoprecipitated using 1:500 goat anti-human COX-2 (Santa Cruz Biotechnology, Santa Cruz, Calif.) and Protein AG beads (Pierce, Rockford, Ill.) overnight at 4° C. Samples were loaded on a 4-20% Tris-Glycine gel (Invitrogen, Carlsbad, Calif.) and transferred to a nitrocellulose membrane overnight. The membrane was blocked with 5% Blotto (Santa Cruz Biotechnology, Santa Cruz, Calif.), and COX-2 was detected using 1:100 goat anti-human COX-2 (Santa Cruz Biotechnology, Santa Cruz, Calif.) and 1:5,000 rabbit anti-goat IgG HRP (Santa Cruz Biotechnology, Santa Cruz, Calif.). The membrane was visualized using ECL (Amersham, Piscataway, N.J.) and exposed to X-ray film.

[3] = target: T1, COX-2 (Homo sapiens, UniProt P35354); test: COX-2 activity assay (PGE2 EIA system); type: biochemical; conditions: concentrations up to 20 mM; 0.05 units COX-2, 1 μM arachidonic acid; data not shown
T1 construct: purchased Oxford Biomedical, Oxford, Mich
T1 sequence (P35354 18-604): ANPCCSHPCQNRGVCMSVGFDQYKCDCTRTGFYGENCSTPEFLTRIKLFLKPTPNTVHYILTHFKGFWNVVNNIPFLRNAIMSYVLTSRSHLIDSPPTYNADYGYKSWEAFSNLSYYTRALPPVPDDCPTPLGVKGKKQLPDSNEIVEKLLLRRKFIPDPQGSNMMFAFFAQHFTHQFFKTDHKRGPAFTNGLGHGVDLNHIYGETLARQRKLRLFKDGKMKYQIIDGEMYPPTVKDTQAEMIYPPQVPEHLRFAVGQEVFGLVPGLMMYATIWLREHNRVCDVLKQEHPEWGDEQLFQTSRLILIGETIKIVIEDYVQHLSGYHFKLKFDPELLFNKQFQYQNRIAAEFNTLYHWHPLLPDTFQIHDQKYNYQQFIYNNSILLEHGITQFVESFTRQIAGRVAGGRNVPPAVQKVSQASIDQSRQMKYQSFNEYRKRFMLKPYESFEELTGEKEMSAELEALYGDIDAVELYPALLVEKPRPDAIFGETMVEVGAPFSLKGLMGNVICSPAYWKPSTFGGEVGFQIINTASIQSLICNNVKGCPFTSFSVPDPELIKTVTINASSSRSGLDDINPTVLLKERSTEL
Description: COX-2 Activity Assay. Modifying the method of Ouellet and co-workers (Proc. Natl. Acad. Sci. USA, 98:14583-14588 (2001)), COX-2 activity was determined using the PGE2 EIA system. Briefly, COX-2 (Oxford Biomedical, Oxford, Mich.) was incubated at 37° C. for 5 minutes with arachidonic acid (AA), 500 μM phenol, and 1 μM hematin in a 100 mM phosphate buffer (pH 6.5). The reaction was stopped with a solution containing dH2O/MeOH/1 M citric acid (30:4:1). After optimization of COX-2 and AA, 0.05 units of COX-2 per incubation and 1 μM of AA were determined to be optimal. Varying concentrations of NAA and aspirin (pH 6.5) were pre-incubated with COX-2, hematin, and phenol for 15 minutes at 37° C. prior to AA addition. The reaction was stopped after 5-minute incubation with AA. PGE2 levels were determined using PGE2 EIA system as described.
Effect of NAA on COX-2 activity and mRNA. To determine if NAA was inhibiting the cyclooxygenase enzyme directly, a COX-2 activity assay was developed using the PGE2 EIA system. After optimizing for COX-2 and arachidonic acid (AA), a concentration of 0.05 units/incubation of COX-2 and 1 μM of AA was determined to be optimal.

[4] = tested on: activated NFκB in IL-1β-stimulated STTG cells; test: NFκB assay (ELISA-based) in IL-1β-stimulated STTG cells; type: cell-based, human; conditions: 1 ng/ml IL-1β, 24 h, FIG. 4
Description: FIG. 4. Effect of NAA on NFκB levels in STTG cells stimulated with IL-1. Cells were dosed with NAA and immediately stimulated with 1 ng/ml IL-1 for 24 hours at 37° C., 10% CO2. Cells were lysed, and 10 μg of total protein was assayed for activated NFκB levels using an ELISA-based method. Data represent mean ±SD of three separate experiments. Percentages are percent of inhibition of production of activated NFκB. Asterisks indicate a significant difference between untreated, IL-1β-stimulated STTG cells and NAA-treated, IL-1β-stimulated STTG cells: *p<0.005.
NFκB Assay. STTG cells were treated with NAA and stimulated immediately with 1 ng/ml IL-1β. After a 24-hour incubation, cells were lysed and total protein was quantitated using the BCA™ Protein Assay Kit (Pierce, Rockford, Ill.). Then, 10 μg of protein lysate was assayed for NFκB using the TransAM™ NFκB Family Transcription Factor Assay Kit (Catalog No. 43296, Active Motif, Carlsbad, Calif.).
Effect of NAA on NFκB activation. Activated NFκB was quantitated using a 96-well plate coated with an oligonucleotide that contains an NFκB consensus-binding site. This site specifically binds activated NFκB contained in cell extracts.

[5] = tested on: COX-2 mRNA in STTG astroglial cells; test: RT-PCR of COX-2 in STTG cells; type: cell-based, human; conditions: 5 and 10 mM, data not shown
Description: RT-PCR of COX-2. STTG cells were grown to near confluency on 25 cm^2 cell culture flasks. Cells were dosed with 5 or 10 mM NAA and incubated for 4 or 24 hours at 37° C., 10% CO2. RNA was isolated using Rneasy Mini Kit (Qiagen, Valencia, Calif.) and quantitated using A260/A280 assay. Then, 2 μg of RNA was converted to cDNA using the Omniscript Reverse Transcriptase Kit (Qiagen, Valencia, Calif.). PCR was next performed using HotStarTaq Master Mix (Qiagen, Valencia, Calif.). COX-2 forward ([…] [SEQ ID NO:1]) and reverse primers ([…] [SEQ ID NO:2]) were obtained from Qiagen (Valencia, Calif.) and used at a concentration of 0.5 μM. The PCR thermal cycler program consisted of: 1) 1 denaturation cycle of 15 minutes at 95° C.; 2) 30 cycles of 94° C. (30 sec denaturation), 55° C. (30 sec annealing), and 72° C. (30 sec elongation); and 3) 1 elongation cycle of 10 minutes at 72° C. PCR product was then loaded on a 2% (w/v) agarose gel and stained with ethidium bromide.

[6] = 5 mM, ionomycin-stimulated STTG cells
[7] = 10 mM, ionomycin-stimulated STTG cells
[8] = ionomycin-stimulated STTG cells, result in words

SMILES	decrease in PGE2 release [1, 6] [%]	decrease in PGE2 release [1, 7] [%]	effect on total PGE2 release [1, 8]	effect on total amount of COX-2 protein [2]	effect on resting COX-2 protein [2]	other results
CCOC(=O)CC[C@H](N)C(=O)OCC [GDE, L-glutamic acid diethyl ester, reference compound]	40	60	did decrease	–	–	–
N[C@@H](CCP(=O)(O)O)C(=O)O [L-AP-4, L-2-amino-4-phosphonobutyric acid, reference compound]	–	–	did decrease	–	–	–
CC(=O)N[C@@H](CC(=O)O)C(=O)O [NAA, N-acetyl-L-aspartic acid]	60	90	–	decreased	no effect	effect on COX-2 activity [3]: no effect; decrease in PGE2 production ([1]; 5 mM, 1 h pre-incubation, 1 μM ionomycin 24 h, STTG cells, FIG. 1): 56%; decrease in PGE2 production ([1]; 10 mM, 1 h pre-incubation, 1 μM ionomycin 24 h, STTG cells, FIG. 1): 76%; inhibition at 20000 µM ([1]; Homo sapiens, 20 mM, 1 h pre-incubation, 1 μM ionomycin 24 h, STTG cells, FIG. 1, read-out: decrease in PGE2 production (inhibition)): > 95%; decrease in NFκB production (activated NFκB) ([4]; 10 mM): 17.5%; decrease in NFκB production (activated NFκB) ([4]; 20 mM): 40%; effect on total COX-2 mRNA [5]: did not decrease
CC(=O)Oc1ccccc1C(=O)O [aspirin, reference compound]	–	–	–	decreased	decreasing effect	inhibition of cyclooxygenases as evidenced by lack of PGE2 production ([1]; ionomycin-stimulated STTG cells, FIG. 1, result in words): complete inhibition
